Measured values reported in BindingDB's records for doi:10.3109/14756366.2013.765413 (Karunya University, 2014).

Tests used:
[1] = target: T1, DNA topoisomerase I/type IB small subunit (Leishmania donovani, UniProt E9B7X3+E9BRC0); assay: Preincubation Relaxation Assay; conditions: pH 7.5
T1 sequence (E9B7X3 whole entry): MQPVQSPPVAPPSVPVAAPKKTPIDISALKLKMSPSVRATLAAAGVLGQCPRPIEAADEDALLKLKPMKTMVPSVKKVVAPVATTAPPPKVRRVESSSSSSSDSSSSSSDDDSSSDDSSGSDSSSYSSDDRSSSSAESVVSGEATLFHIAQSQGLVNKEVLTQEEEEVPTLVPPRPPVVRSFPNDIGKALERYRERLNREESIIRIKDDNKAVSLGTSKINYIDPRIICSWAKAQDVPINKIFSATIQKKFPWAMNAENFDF
T1 sequence (E9BRC0 whole entry): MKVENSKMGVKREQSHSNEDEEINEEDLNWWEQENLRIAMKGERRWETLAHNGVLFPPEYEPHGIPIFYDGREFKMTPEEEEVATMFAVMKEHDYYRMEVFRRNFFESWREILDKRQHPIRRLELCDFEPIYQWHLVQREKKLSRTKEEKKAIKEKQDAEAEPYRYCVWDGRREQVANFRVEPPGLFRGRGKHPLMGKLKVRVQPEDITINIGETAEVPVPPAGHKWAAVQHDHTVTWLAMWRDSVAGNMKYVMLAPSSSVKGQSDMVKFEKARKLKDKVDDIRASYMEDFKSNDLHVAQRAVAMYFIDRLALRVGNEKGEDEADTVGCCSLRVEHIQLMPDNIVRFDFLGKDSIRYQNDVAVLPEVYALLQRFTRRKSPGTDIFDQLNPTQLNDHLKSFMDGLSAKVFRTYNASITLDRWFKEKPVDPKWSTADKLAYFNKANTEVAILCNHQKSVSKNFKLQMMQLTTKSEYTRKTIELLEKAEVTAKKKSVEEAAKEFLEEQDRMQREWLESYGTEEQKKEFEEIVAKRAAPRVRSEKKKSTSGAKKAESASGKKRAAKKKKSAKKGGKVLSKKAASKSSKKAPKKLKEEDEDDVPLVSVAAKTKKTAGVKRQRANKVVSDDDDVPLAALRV
Procedure: In the preincubation assay, CPT concentrations were 50 and 100 μM, whereas various concentrations of compounds were 25, 50 and 100 μM. LdTOP1LS was preincubated with compounds 3a-d at different concentrations for 5 min at 37 °Cbefore the addition of substrate DNA. Relaxation assay was carried out as described previously with LdTOPILS serially diluted in the relaxation buffer (25mM Tris-HCl pH 7.5, 5% glycerol, 0.5mM DTT, 10mM MgCl2, 2.5mM EDTA and 150 mg/ml BSA) supercoiled pBluescript (SK ) DNA and 50mM KCl. The amount of supercoiled monomer DNA band fluorescence after ethidium bromide (EtBr) (0.5 mg/ml) staining was quantitated by using GEL Doc 2000 from Biorad (Hercules, CA, USA).

[2] = target: T1, DNA topoisomerase I/type IB small subunit; assay: Stimultaneous Relaxation Assay; conditions: pH 7.5
Procedure: In simultaneous relaxation assay, CPT concentrations were 50 and 100 μM, whereas concentration of compounds were 50, 100 and 200 μM. Relaxation assay was carried out as described previously with LdTOPILS serially diluted in the relaxation buffer (25mM Tris-HCl pH 7.5, 5% glycerol, 0.5mM DTT, 10mM MgCl2, 2.5mM EDTA and […]) supercoiled pBluescript (SK ) DNA and 50mM KCl. The amount of supercoiled monomer DNA band fluorescence after ethidium bromide (EtBr) ([…]) staining was quantitated by using GEL Doc 2000 from Biorad (Hercules, CA, USA).

Row | IC50 [1] | IC50 [2] | Compound
1 | 14 µM |  | COc1cc(C(C2=C(O)C(=O)c3ccccc3C2=O)C2=C(O)C(=O)c3ccccc3C2=O)ccc1O [Bi-lawsone analog, 3c]
2 | 13 µM | 70 µM | O=C1C(O)=C(C(C2=C(O)C(=O)c3ccccc3C2=O)c2ccc(O)cc2)C(=O)c2ccccc21 [Bi-lawsone analog, 3d]
3 |  | 37.5 µM | CN(C)c1ccc(C(C2=C(O)C(=O)c3ccccc3C2=O)C2=C(O)C(=O)c3ccccc3C2=O)cc1 [Bi-lawsone analog, 3b]
4 | 16 µM | 51 µM | O=C1C(O)=C(C(C2=C(O)C(=O)c3ccccc3C2=O)c2ccccc2)C(=O)c2ccccc21 [Bi-lawsone analog, 3a]
